Nine compounds from ChEMBL document CHEMBL1909046, “DrugMatrix in vitro pharmacology data” can be followed below.

Structures are written as SMILES.

A short description of assay [1]: DRUGMATRIX: Sodium/nucleoside co-transporter radioligand binding (ligand: nitrobenzylthioinosine). It is filed as cell membranes, Cavia porcellus, Dunkin-Hartley, Cerebral cortex, Membrane. To be noted: Not Active = under 50% inhibition at 10 µM.
For assay [2], the target named is Vascular endothelial growth factor receptor 1 (Homo sapiens, UniProt P17948). It is filed as cell-based. As to conditions: huvec. Also: in other assays of this panel Not Active means under 50% inhibition at 10 µM.
Vascular endothelial growth factor receptor 1, sequence (P17948 whole entry): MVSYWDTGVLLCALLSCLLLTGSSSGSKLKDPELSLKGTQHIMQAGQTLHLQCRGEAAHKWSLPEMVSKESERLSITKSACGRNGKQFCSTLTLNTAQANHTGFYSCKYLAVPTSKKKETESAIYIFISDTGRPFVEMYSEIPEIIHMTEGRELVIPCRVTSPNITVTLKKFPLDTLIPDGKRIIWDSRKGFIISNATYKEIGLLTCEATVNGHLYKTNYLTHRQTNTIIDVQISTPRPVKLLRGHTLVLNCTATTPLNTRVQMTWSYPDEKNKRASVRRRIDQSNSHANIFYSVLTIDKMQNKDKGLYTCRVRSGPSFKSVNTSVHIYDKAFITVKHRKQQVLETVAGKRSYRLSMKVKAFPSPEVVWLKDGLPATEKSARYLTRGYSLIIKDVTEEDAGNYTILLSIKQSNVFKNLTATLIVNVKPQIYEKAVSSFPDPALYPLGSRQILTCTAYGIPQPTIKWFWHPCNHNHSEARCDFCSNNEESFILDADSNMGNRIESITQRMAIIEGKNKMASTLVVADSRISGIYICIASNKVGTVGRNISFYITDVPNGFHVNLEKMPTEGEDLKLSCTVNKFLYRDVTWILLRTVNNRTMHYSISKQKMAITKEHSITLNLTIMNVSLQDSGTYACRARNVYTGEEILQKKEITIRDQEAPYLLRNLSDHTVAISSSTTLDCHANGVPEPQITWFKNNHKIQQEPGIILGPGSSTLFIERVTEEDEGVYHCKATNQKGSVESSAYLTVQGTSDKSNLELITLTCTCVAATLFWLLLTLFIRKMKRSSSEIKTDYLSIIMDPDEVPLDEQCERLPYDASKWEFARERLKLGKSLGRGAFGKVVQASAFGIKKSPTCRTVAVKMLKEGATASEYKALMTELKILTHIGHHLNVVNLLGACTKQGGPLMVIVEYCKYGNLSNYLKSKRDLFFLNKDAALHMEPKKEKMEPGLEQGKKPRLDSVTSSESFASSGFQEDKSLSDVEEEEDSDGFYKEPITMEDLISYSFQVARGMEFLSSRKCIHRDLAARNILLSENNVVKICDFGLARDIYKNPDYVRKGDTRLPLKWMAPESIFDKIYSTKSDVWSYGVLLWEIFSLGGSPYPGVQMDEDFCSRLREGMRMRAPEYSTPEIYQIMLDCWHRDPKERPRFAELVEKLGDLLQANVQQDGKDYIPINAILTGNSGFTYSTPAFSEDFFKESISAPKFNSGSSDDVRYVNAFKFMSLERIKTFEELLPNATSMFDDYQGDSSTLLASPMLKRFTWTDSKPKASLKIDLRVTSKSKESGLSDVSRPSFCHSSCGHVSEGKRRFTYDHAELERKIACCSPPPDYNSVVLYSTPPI
The next assay has as its target Vasopressin V1a receptor (Homo sapiens, UniProt P37288). The class given is cell membranes, Membrane. As to conditions: hek293. Also: in other assays of this panel Not Active means under 50% inhibition at 10 µM.
Assay [3] in a line: DRUGMATRIX: GABAA, Flunitrazepam, Central radioligand binding (ligand: [3H] Flunitrazepam). To be noted: Not Active = under 50% inhibition at 10 µM. It is filed as cell membranes, Rattus norvegicus, Wistar, Brain, Membrane.
Assay [4] deals with T1, 3-hydroxy-3-methylglutaryl-coenzyme A reductase (Homo sapiens, UniProt P04035).
T1 sequence (P04035 whole entry): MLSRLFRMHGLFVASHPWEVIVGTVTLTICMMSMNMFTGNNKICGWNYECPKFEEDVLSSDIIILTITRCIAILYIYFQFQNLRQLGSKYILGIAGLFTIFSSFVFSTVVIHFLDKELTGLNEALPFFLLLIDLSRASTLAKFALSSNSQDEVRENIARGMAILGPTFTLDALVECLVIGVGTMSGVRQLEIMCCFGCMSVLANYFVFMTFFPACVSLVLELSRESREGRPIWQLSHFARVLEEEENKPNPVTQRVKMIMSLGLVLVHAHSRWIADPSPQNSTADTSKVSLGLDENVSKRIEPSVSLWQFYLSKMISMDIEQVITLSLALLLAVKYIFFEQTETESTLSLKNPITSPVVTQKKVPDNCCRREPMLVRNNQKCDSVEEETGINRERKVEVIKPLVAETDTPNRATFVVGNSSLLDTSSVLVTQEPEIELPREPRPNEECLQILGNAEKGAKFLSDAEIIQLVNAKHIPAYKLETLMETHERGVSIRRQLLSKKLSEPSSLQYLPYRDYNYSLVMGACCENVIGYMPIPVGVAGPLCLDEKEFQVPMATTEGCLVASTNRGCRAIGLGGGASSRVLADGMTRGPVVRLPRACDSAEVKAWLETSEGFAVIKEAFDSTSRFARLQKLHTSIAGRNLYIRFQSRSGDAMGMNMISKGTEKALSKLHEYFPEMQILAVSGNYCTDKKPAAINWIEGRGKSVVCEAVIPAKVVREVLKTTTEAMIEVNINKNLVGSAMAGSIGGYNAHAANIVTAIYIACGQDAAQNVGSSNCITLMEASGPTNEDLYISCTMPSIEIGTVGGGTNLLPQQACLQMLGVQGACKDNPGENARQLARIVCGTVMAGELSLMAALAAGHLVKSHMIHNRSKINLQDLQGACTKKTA
Set-up: species or system Escherichia coli.

In assay [5] the target is T2, Muscarinic acetylcholine receptor M2 (Homo sapiens, UniProt P08172). Also: in other assays of this panel Not Active means under 50% inhibition at 10 µM.
T2 sequence (P08172 whole entry): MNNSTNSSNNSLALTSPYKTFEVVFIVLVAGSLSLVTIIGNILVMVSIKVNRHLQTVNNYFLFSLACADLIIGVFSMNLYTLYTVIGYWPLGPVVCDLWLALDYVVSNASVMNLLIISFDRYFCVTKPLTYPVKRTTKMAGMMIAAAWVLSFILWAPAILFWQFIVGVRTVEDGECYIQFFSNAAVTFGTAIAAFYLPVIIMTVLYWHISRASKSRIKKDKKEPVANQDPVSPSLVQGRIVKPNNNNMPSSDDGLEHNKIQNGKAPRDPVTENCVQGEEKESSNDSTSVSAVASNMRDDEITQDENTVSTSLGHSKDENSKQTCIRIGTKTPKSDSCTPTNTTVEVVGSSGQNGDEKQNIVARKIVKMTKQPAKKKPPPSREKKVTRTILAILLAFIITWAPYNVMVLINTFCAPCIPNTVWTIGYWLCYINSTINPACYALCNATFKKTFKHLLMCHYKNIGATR
The class given is cell membranes, CHO-K1, Membrane. As to conditions: cho-k1.

Assay [6] concerns the target T3, Muscarinic acetylcholine receptor M5 (Homo sapiens, UniProt P08912). Also: in other assays of this panel Not Active means under 50% inhibition at 10 µM.
T3 sequence (P08912 whole entry): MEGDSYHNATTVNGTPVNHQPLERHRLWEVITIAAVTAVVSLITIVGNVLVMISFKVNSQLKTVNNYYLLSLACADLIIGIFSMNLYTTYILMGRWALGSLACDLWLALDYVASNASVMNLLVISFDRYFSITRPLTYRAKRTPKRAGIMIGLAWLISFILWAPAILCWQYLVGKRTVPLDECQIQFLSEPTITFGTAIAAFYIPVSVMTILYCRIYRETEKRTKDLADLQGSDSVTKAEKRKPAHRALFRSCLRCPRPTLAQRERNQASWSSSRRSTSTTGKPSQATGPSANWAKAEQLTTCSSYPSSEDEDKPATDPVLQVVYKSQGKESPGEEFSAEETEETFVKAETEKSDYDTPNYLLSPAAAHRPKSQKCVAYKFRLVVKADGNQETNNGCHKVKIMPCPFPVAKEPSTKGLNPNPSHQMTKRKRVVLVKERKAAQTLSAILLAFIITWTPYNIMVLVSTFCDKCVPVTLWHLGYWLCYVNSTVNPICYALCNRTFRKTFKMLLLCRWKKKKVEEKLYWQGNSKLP
It is filed as cell membranes, CHO-K1, Membrane. To be noted: cho-k1.

In assay [7] the target is Kappa-type opioid receptor (Homo sapiens, UniProt P41145). The experiment in a line: DRUGMATRIX: Opiate kappa (OP2, KOP) radioligand binding (ligand: [3H] Diprenorphine). It is filed as cell membranes, HEK293, Membrane. As to conditions: hek293; Not Active = under 50% inhibition at 10 µM.
Kappa-type opioid receptor, sequence (P41145 whole entry): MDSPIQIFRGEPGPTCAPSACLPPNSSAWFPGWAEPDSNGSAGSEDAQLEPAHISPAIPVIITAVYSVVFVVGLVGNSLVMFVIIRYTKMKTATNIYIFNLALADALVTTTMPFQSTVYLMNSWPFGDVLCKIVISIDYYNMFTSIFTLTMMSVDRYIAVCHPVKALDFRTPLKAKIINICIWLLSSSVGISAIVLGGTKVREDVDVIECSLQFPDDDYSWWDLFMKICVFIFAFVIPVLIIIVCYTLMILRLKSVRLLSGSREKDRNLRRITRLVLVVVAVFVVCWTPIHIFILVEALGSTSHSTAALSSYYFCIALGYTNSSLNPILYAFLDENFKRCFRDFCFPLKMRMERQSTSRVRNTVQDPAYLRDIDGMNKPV
Another assay has as its target T4, Caspase-1 (Homo sapiens, UniProt P29466).
T4 sequence (P29466 whole entry): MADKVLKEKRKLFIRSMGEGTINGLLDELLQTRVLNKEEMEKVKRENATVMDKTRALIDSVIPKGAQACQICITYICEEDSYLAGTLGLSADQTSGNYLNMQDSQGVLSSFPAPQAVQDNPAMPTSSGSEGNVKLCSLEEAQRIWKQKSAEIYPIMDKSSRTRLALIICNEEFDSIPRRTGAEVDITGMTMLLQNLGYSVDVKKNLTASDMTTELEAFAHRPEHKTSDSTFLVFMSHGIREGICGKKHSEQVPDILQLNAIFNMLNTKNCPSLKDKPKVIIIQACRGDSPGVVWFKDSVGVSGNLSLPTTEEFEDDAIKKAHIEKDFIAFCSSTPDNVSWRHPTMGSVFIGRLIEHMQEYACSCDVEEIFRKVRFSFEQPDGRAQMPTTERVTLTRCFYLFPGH
More on the design: species or system Escherichia coli.

The target of assay [8] is Mitogen-activated protein kinase 14 (Homo sapiens, UniProt Q16539). More on the design: species or system Escherichia coli.
Mitogen-activated protein kinase 14, sequence (Q16539 whole entry): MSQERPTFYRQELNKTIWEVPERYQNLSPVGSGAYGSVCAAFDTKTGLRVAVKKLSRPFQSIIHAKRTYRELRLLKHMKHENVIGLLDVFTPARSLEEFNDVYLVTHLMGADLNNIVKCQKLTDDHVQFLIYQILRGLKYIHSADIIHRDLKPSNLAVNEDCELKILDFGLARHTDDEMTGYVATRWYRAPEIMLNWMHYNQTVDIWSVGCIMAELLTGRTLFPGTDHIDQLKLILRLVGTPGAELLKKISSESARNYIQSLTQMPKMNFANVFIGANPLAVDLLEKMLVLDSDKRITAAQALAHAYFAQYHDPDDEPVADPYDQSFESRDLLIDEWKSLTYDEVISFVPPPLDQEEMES

Vasopressin V1a receptor, sequence (P37288 whole entry): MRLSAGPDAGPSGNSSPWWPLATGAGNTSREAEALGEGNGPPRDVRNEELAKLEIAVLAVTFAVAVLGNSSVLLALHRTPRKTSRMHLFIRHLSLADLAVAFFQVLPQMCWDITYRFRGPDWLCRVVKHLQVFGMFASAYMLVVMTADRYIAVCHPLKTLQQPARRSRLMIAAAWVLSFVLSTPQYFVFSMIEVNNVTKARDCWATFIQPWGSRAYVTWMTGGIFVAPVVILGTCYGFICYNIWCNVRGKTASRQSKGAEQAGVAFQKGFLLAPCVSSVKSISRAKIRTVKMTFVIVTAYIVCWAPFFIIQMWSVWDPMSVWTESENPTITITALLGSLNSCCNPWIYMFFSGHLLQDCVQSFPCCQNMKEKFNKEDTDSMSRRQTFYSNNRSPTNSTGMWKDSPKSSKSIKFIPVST

Regarding `Brc1ccccc1` [BROMOBENZENE], the IC50 result (in assay [1]; in assay [2]; on Vasopressin V1a receptor; in [3]; in [4]; in assay [5]) was “Not Active” throughout. The IC50 entry (in assay [6]; in assay [7]; against Caspase-1; in assay [8]) was “Not Active” in each case. Also, the Ki result in assay [1] and in [3] was “Not Active” throughout.
For `CCCCOC(=O)c1ccc(N)cc1` [BUTAMBEN], the IC50 entry (in [1]; in assay [2]; against Vasopressin V1a receptor; in [3]; in [4]; in [5]) was “Not Active” throughout. The 50% inhibitory concentration (IC50) result (in assay [6]; in [7]; against Caspase-1; in assay [8]) was “Not Active” each time. Further, the Ki result in [1] and in assay [3] was “Not Active” in each case.
As to `CC[C@@]1(O)C(=O)OCc2c1cc1n(c2=O)Cc2cc3ccccc3nc2-1` [CAMPTOTHECIN], the half-maximal inhibitory concentration (IC50) entry (in assay [1]; in assay [2]; against Vasopressin V1a receptor; in assay [3]; in assay [4]; in assay [5]) was “Not Active” each time. In addition, the IC50 entry (in [6]; in [7]; against Caspase-1; in assay [8]) was “Not Active” in each case. In addition, the Ki result in assay [1] and in assay [3] was “Not Active” throughout.
`COCc1c(C(C)C)nc(C(C)C)c(/C=C/[C@@H](O)C[C@@H](O)CC(=O)O)c1-c1ccc(F)cc1` [CERIVASTATIN]: the IC50 result was “Not Active” in [1]; “Not Active” in assay [2]; “Not Active” against Vasopressin V1a receptor; “Not Active” in assay [3]; 0.085 nM in assay [4] (read-out: IC50); “Not Active” in [5]. Besides, the IC50 result (in assay [6]; in assay [7]; on Caspase-1; in assay [8]) was “Not Active” in each case. The Ki entry in assay [1] and in assay [3] was “Not Active” each time.
For the compound `CC(=O)O[C@]1(C(C)=O)CC[C@H]2[C@@H]3C=C(Cl)C4=CC(=O)CC[C@]4(C)[C@H]3CC[C@@]21C` [CHLORMADINONE ACETATE], the 50% inhibitory concentration (IC50) result (in assay [1]; in assay [2]; against Vasopressin V1a receptor; in assay [3]; in assay [4]; in assay [5]) was “Not Active” throughout. Besides, the IC50 result (in assay [6]; in assay [7]; on Caspase-1; in [8]) was “Not Active” each time. Moreover, the Ki result in [1] and in assay [3] was “Not Active” each time.
As for `O=C1CCc2cc(OCCCCc3nnnn3C3CCCCC3)ccc2N1` [CILOSTAZOL], the half-inhibitory concentration (IC50) result (in assay [1]; in [2]; at Vasopressin V1a receptor; in [3]; in [4]; in [5]) was “Not Active” in each case. Besides, the IC50 result (in [6]; in assay [7]; against Caspase-1; in [8]) was “Not Active” throughout. The Ki result in [1] and in assay [3] was “Not Active” in each case.
On to `O=C(O)c1cn(C2CC2)c2cc(N3CCNCC3)c(F)cc2c1=O` [CIPROFLOXACIN], for which the 50% inhibitory concentration (IC50) entry (in assay [1]; in assay [2]; on Vasopressin V1a receptor; in [3]; in [4]; in [5]) was “Not Active” each time. In addition, the IC50 result (in assay [6]; in assay [7]; at Caspase-1; in [8]) was “Not Active” in each case. In addition, the Ki entry in [1] and in assay [3] was “Not Active” each time.
As for `CN(C)CCCC1(c2ccc(F)cc2)OCc2cc(C#N)ccc21` (stereo not drawn) [CITALOPRAM], the half-maximal inhibitory concentration (IC50) result (in [1]; in assay [2]; at Vasopressin V1a receptor; in assay [3]; in [4]; in assay [5]) was “Not Active” each time. Besides, the IC50 entry (in assay [6]; in assay [7]; against Caspase-1; in assay [8]) was “Not Active” in each case. Also, the Ki entry in assay [1] and in assay [3] was “Not Active” throughout.
For `COC(=O)[C@H](c1ccccc1Cl)N1CCc2sccc2C1` [CLOPIDOGREL], the concentration for half-maximal inhibition (IC50) entry (in assay [1]; in [2]; against Vasopressin V1a receptor; in assay [3]; in assay [4]; in [5]) was “Not Active” throughout. The IC50 entry (in assay [6]; in assay [7]; against Caspase-1; in assay [8]) was “Not Active” throughout. Moreover, the Ki entry in assay [1] and in assay [3] was “Not Active” each time.

By IC50 is commonly meant the concentration that gives 50% inhibition.
